Measured values published in patent US20240384268A1, “Oligonucleotides” (Hudson Institute of Medical Research, priority 2021, published 2024).

Biological target: T1, human TLR9 (Homo sapiens, UniProt Q9NR96)
T1 construct: HA; host or cells: 293XL-hTLR9-HA (HEK293)
T1 sequence (Q9NR96 26-1032): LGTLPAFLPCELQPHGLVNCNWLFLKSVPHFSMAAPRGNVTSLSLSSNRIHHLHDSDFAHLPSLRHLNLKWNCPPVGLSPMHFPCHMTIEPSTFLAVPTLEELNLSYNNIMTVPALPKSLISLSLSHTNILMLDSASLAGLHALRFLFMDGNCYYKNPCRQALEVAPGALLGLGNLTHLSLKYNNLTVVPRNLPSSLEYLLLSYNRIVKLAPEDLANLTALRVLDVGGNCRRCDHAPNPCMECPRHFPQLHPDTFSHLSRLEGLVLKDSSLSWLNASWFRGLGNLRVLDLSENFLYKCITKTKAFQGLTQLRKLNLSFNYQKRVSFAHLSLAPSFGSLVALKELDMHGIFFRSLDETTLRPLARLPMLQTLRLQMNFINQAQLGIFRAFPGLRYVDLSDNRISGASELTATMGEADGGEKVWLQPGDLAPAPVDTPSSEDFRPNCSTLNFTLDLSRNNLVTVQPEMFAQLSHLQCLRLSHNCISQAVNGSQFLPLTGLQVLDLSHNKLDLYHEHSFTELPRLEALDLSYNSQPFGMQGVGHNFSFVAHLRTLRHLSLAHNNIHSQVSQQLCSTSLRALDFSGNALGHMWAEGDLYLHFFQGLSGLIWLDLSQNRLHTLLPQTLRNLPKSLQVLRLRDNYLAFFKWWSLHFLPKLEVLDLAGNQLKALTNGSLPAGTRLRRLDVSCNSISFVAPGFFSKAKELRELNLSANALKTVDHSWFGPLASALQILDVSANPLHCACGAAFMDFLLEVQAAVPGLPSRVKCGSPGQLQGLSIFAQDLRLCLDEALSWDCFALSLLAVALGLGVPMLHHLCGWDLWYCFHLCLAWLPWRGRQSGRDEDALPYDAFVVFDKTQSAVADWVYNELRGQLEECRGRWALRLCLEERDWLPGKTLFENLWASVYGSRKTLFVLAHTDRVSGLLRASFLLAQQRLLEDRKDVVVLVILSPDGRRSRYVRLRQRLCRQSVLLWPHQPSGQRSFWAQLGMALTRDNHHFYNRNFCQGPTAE
Test: HEK-TLR9 NF-κB-luciferase reporter, ODN2006 stimulation
Format: cell-based
Settings: averaged NF-κB-Luciferase relative to ODN2006 condition; for TLR9 100 nM: MOE-modified ASO at 100 nM; for TLR9 500 nM: MOE-modified ASO at 500 nM

| Sequence | TLR9 100 nM | TLR9 500 nM |
| --- | --- | --- |
| GGTCCATACCCAAGGCATCC (antisense; 2'-MOE modified, pattern not given here) [CTNN2B-2446 MOE] | 0.687 | 0.453 |
| GGTGGTCCACAACCCCTTTC (antisense; 2'-MOE modified, pattern not given here) [MB21D1-697 MOE] | 0.456 | 0.071 |
| GGTGGTGGCCACCCATCTCA (antisense; 2'-MOE modified, pattern not given here) [CTNN2B-2479 MOE] | 0.761 | 0.317 |
| GGTGTCCTTGCACGTGGCTT (antisense; 2'-MOE modified, pattern not given here) [EGFR-1016 MOE] | 1.064 | 0.714 |
| GTCCACATCCTGTGGCTCGT (antisense; 2'-MOE modified, pattern not given here) [CAMSAP1-2906 MOE] | 0.559 | 0.254 |
| GTCCTTGCACGTGGCTTCGT (antisense; 2'-MOE modified, pattern not given here) [EGFR-1013 MOE] | 0.682 | 0.602 |
| GTCTTGGCTTCGTGGAGCAG (antisense; 2'-MOE modified, pattern not given here) [MB21D1-520 MOE] | 0.709 | 0.599 |
| GTGTCCTTGCACGTGGCTTC (antisense; 2'-MOE modified, pattern not given here) [EGFR-1015 MOE] | 0.784 | 0.641 |
| GTGTCTTCATCGGCCCTGCC (antisense; 2'-MOE modified, pattern not given here) [CAMSAP1-2113 MOE] | 0.611 | 0.201 |
| TAGGCACTTTGCCTCCTTCT (antisense; 2'-MOE modified, pattern not given here) [EGFR-2859 MOE] | 0.808 | 0.914 |
| TAGTCAAGGGCATATCCTAC (antisense; 2'-MOE modified, pattern not given here) [HPRT-732 MOE] | 0.787 | 0.462 |
| TCAAAGGACTGAGGAAAGGG (antisense; 2'-MOE modified, pattern not given here) [CAMSAP1-6273 MOE] | 0.265 | 0.040 |
| TCCAACACTTCGTGGGGTCC (antisense; 2'-MOE modified, pattern not given here) [HPRT-667 MOE] | 0.792 | 0.616 |
| TCGCACTTCAGTCTGAGCAG (antisense; 2'-MOE modified, pattern not given here) [MB21D1-719 MOE] | 0.521 | 0.266 |
| TGTCCTTGCACGTGGCTTCG (antisense; 2'-MOE modified, pattern not given here) [EGFR-1014 MOE] | 0.764 | 0.623 |
| TGTCTTCATCGGCCCTGCCT (antisense; 2'-MOE modified, pattern not given here) [CAMSAP1-2112 MOE] | 0.697 | 0.480 |
| TGTGATGGCCTCCCATCTCC (antisense; 2'-MOE modified, pattern not given here) [HPRT-332 MOE] | 0.674 | 0.782 |
| TTCTGCAGCTTCCTTGTCCT (antisense; 2'-MOE modified, pattern not given here) [CTNN2B-2136 MOE] | 0.746 | 0.467 |
| TTGCACACTTCGTACCCAAA (antisense; 2'-MOE modified, pattern not given here) [CAMSAP1-4915 MOE] | 0.894 | 0.524 |
| TTGCCATGCTGGCTCGGACT (antisense; 2'-MOE modified, pattern not given here) [CAMSAP1-2584 MOE] | 0.516 | 0.534 |
| TTGGCTCGGCTTGCCTACTT (antisense; 2'-MOE modified, pattern not given here) [CAMSAP1-5594 MOE] | 0.705 | 0.445 |
